For one experiment, the target named is ALK I1171N/D1203N (Homo sapiens (Human), UniProt Q9UM73, D1203N/I1171N). The experiment is described as follows: Biochemical kinase assay, ALK I1171N/D1203N. The following applies: apparent inhibitory constant, kinase domain, Morrison equation; read-out: ALK-I1171N-D1203N Ki^app. On the procedure:
(§1) First, 250 nL of compound dissolved in DMSO (100-fold of the desired concentration) was dispensed into a 384-well plate. A 12.5 μL substrate solution containing ATP (2 mM) and fluorogenic phosphorylation substrate AQT0101 ([…] for ALK and ROS, AssayQuant) or AQT0104 (26 μM for TRKB, AssayQuant) in buffer (50 mM HEPES pH 7.5, […], 0.5 mM EGTA, 10 mM MgCl2) was added and mixed thoroughly. Then, a 12.5 μL kinase solution containing ALK (1.5 nM, Carna, 08-518), ALK I1171N/D1203N (4 nM, SignalChem, custom-made), ROS1 (0.6 nM, Carma, 08-163), ROS1-G2032R (0.5 nM, SignalChem, R14-121BG), or TRKB-wt (1.5 nM, SignalChem, N17-11G) kinase domains in buffer ([…] pH 7.5, 0.01% Brij-[…], 0.4 mg/mL BSA, 0.5 mM EGTA, and 10 mM MgCl2) was added and mixed thoroughly. The plate was sealed and read by SpectraMax Paradigm at λ=485 nm every 2 minutes for 120 minutes at 30° C. Initial rates of reaction (v) were calculated from the change in fluorescence intensity over time during the initial, linear portion of the reaction. Finally, apparent inhibitory constants (Ki^app) were determined from regression of v and I (inhibitor concentration) to Morrison Equation (E=enzyme concentration): […]
(§2) Compound potency can be interpreted by binning Ki^app values against the targets: bin A for high potency, Ki^app<50 nM; bin B for medium potency, 50 nM≤Ki^app<500 nM; and bin C for low potency, Ki^app≥500 nM. […] “nd” means not determined.

For a further experiment, the target named is TRKB-wt (Homo sapiens (Human), UniProt Q16620). Kind of experiment: Biochemical kinase assay, TRKB-wt. The following applies: apparent inhibitory constant, kinase domain, Morrison equation; read-out: TRKB-wt Ki^app. On the procedure:
as §1, §2

The target in experiment [1] is Ba/F3 EML4-ALK v1 I1171N/D1203N (Homo sapiens (Human), UniProt Q9HC35+Q9UM73, D1203N/I1171N). The experiment is described as follows: Ba/F3 cell proliferation assay, EML4-ALK v1 I1171N/D1203N. The class given is cell-based. The following applies: for pIC50: Ba/F3 stable cells, 72 hours, CellTiter-Glo; for ETV6-TRKB / EML4-ALK v1 I1171N/D1203N / Selectivity for Ba/F3 EML4-ALK v1 I1171N-D1203N IC50 over Ba/F3 ETV6-TRKB IC50: TRKB selectivity, ratio of Ba/F3 IC50 values; for Selectivity for Ba/F3 EML4-ALK v1 I1171N-D1203N IC50 over Ba/F3 ETV6-TRKB IC50: Table 6 bins. The method in brief: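 Viability read by CellTiter-Glo luminescence after 72 h exposure to a 3-fold compound dilution series, with IC50 from four-parameter logistic regression. Cells were Ba/F3 rendered IL-3-independent through retroviral expression of EML4-ALK v1 I1171N/D1203N, puromycin-selected.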
(In general: ATP-based viability assays read luminescence as a measure of living cells.)

In a further experiment the target is Ba/F3 ETV6-TRKB (Homo sapiens, UniProt Q16620). Kind of experiment: Ba/F3 cell proliferation assay, ETV6-TRKB. The following applies: Ba/F3 stable cells, 72 hours, CellTiter-Glo; read-out: ETV6-TRKB IC50. In kind it is cell-based. The method in brief:
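Growth inhibition after 72 h compound exposure (3-fold series) was measured by CellTiter-Glo in IL-3-independent Ba/F3 cells stably expressing ETV6-TRKB. A four-parameter logistic fit of percent inhibition versus concentration gave IC50.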

The target of the next experiment is Ba/F3 EML4-ALK v1 I1171N (Homo sapiens (Human), UniProt Q9HC35+Q9UM73, I1171N). Kind of experiment: Ba/F3 cell proliferation assay, EML4-ALK v1 I1171N. In kind it is cell-based. Put shortly:
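Ba/F3 cells stably transformed with retroviral EML4-ALK v1 I1171N, selected by IL-3 withdrawal and puromycin, grown IL-3-free. Compounds added as 3-fold dilution series, 72 h incubation; viability by CellTiter-Glo luminescence. IC50 from percent inhibition by four-parameter logistic fit, binned A/B/C.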

pIC50, pKi: −log10 of the molar value.

As a reminder, the pKi is −log10 of the Ki, conventionally taken in molar units. Broadly, the pIC50 is −log10 of the IC50, conventionally taken in molar units.

ALK I1171N/D1203N, sequence (Q9UM73 1116-1392 I1171N/D1203N): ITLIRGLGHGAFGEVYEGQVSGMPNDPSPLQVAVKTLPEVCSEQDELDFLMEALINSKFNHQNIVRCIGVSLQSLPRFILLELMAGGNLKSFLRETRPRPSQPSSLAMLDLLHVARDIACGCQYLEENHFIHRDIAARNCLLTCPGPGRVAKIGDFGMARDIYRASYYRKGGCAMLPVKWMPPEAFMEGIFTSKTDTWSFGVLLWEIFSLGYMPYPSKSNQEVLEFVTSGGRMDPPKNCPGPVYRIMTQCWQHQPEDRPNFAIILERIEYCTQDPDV
Ba/F3 EML4-ALK v1 I1171N/D1203N, sequence (Q9UM73 other isoform, or with tags, fused parts or gaps I1171N/D1203N): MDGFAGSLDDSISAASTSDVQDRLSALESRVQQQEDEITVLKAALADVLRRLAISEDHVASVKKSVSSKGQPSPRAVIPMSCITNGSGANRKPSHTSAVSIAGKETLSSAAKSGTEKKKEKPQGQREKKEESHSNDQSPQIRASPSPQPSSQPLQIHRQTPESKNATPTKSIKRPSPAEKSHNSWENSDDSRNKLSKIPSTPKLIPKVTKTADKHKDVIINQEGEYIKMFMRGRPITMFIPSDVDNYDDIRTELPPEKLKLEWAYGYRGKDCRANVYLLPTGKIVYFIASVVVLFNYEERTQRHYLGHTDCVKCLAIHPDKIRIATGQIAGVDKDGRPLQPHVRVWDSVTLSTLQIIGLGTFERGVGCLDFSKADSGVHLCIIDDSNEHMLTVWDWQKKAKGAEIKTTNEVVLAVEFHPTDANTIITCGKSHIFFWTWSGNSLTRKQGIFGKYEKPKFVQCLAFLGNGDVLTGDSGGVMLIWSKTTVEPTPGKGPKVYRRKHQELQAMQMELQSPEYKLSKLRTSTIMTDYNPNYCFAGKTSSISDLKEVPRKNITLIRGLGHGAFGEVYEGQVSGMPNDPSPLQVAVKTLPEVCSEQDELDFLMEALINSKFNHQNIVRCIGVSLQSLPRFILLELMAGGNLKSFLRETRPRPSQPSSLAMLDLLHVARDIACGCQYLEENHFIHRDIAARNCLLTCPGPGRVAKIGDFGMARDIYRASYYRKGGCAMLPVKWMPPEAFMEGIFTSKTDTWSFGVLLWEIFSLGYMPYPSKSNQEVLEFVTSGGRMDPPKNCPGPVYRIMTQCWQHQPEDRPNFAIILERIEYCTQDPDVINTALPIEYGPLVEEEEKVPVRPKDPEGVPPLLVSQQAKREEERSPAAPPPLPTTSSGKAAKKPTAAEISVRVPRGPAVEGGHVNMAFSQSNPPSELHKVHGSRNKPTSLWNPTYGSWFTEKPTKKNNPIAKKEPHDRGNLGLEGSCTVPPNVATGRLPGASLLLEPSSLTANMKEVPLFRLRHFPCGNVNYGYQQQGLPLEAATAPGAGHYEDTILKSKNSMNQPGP
Ba/F3 ETV6-TRKB, sequence (Q16620 32-822 limits assumed, change not shown): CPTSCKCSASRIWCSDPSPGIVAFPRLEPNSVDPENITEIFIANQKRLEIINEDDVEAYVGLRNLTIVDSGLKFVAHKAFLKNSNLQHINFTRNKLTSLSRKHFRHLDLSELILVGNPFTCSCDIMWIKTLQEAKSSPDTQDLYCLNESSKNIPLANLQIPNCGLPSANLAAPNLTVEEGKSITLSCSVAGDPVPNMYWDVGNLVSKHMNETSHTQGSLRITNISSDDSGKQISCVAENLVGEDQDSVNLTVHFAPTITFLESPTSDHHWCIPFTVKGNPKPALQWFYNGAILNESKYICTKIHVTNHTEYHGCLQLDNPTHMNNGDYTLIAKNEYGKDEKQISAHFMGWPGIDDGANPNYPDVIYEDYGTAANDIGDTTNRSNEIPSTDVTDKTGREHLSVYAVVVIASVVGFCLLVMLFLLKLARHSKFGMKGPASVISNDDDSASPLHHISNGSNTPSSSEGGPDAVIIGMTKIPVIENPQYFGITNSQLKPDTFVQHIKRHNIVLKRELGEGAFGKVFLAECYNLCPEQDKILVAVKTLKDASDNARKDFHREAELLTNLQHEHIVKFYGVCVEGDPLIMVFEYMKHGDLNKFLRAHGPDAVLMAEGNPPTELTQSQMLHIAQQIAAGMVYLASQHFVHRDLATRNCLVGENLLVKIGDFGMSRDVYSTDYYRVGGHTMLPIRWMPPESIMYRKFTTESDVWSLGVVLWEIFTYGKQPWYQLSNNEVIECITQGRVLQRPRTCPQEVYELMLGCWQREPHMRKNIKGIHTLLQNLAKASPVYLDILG
TRKB-wt, sequence (Q16620 538-807): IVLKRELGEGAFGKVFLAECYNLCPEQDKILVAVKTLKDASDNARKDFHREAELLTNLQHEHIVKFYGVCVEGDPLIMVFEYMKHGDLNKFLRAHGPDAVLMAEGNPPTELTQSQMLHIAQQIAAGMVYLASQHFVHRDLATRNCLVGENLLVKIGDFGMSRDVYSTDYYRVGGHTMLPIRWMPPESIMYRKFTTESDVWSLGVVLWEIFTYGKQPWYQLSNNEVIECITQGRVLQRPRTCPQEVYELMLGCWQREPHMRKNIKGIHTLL
Ba/F3 EML4-ALK v1 I1171N, sequence (Q9UM73 other isoform, or with tags, fused parts or gaps I1171N): as the sequence (Q9UM73 other isoform, or with tags, fused parts or gaps I1171N/D1203N) above, with N642D counted along it

Take `CCn1nc(C(=O)N(C)C)c2c1-c1cnc(N)c(c1)O[C@H](C)c1cc(F)ccc1-c1ncccc1C2` [Example 43, N,N-dimethyl-(R)-23-amino-3-ethyl-17-fluoro-20-methyl-21-oxa-3,4,12,24-tetraazapentacyclo[20.3.1.0^2,^6.0^8,^13.0^14,^19]hexacosa-1(25),2(6),4,8(13),9,11,14,16,18,22(26),23-undecaene-5-carboxamide]: the pKi at ALK I1171N/D1203N and at TRKB-wt was over 7.30 throughout. The pIC50 (in experiment [1]; on Ba/F3 ETV6-TRKB) was 7.30 to 10.00 each time. Moreover, the “ETV6-TRKB / EML4-ALK v1 I1171N/D1203N” value in experiment [1] was “B (bin B for high selectivity, ratio≥10-fold but<30)”. In experiment [1], the “Selectivity for Ba/F3 EML4-ALK v1 I1171N-D1203N IC50 over Ba/F3 ETV6-TRKB IC50” value (shortened to “Selectivity”) is given as “BB (bin BB for the selectivity with the ratio≥10-fold but<30)”.

On to `Cc1cc2n(n1)-c1ccc(F)cc1[C@@H](C)Oc1cc(cnc1N)-c1c(nn(C)c1C#N)C2=O` [Example 19, (R)-22-amino-16-fluoro-4-methyl-10,19-dimethyl-7-oxo-20-oxa-4,5,11,12,23-pentaazapentacyclo[19.3.1.0^2,^6.0^8,^12.0^13,^18]pentacosa-1(24),2,5,8, 10,13,15,17,21(25),22-decaene-3-carbonitrile], for which the pKi on ALK I1171N/D1203N and on TRKB-wt was over 7.30 each time. For the same molecule, the pIC50 in experiment [1] was 7.30 to 10.00; at Ba/F3 ETV6-TRKB, 6.30 to 7.30. In addition, the “ETV6-TRKB / EML4-ALK v1 I1171N/D1203N” value in experiment [1] is given as “B (bin B for high selectivity, ratio≥10-fold but<30)”.

With `Cc1cc2n(n1)-c1ccc(F)cc1[C@@H](C)Oc1cc(cnc1N)-c1c(c(C(=O)N(C)C)nn1CC1CC1)C2` [Example 42, N,N-dimethyl-(R)-22-amino-3-(cyclopropylmethyl)-16-fluoro-10,19-dimethyl-20-oxa-3,4,11,12,23-pentaazapentacyclo[19.3.1.0^2,^6.0^8,^12.0^13,^18]pentacosa-1(24),2(6),4,8,10,13,15,17,21(25),22-decaene-5-carboxamide], the pKi was over 7.30 at ALK I1171N/D1203N and at most 6.30 at TRKB-wt. In addition, the pIC50 in experiment [1] was 6.30 to 7.30; at Ba/F3 ETV6-TRKB, under 6.30. Besides, in experiment [1], the “ETV6-TRKB / EML4-ALK v1 I1171N/D1203N” value is “A (bin A for very high selectivity, ratio≥30-fold)”.

For `C[C@H]1Oc2cc(cnc2N)-c2c(c(C(=O)N3CCCC3)nn2CC2CC2)Cc2cn(C)nc2-c2ccc(F)cc21` [Example 11, {(R)-22-amino-3-(cyclopropylmethyl)-16-fluoro-10-methyl-19-methyl-20-oxa-3,4,10,11,23-pentaazapentacyclo[19.3.1.0^2,^6.0^8,^12.0^13,^18]pentacosa-1(24),2(6),4,8,11,13,15,17,21(25),22-decaen-5-yl}(1-pyrrolidinyl)methanone], the pKi was over 7.30 on ALK I1171N/D1203N and 6.30 to 7.30 on TRKB-wt. For the same molecule, the negative-log IC50 (pIC50) in experiment [1] was 6.30 to 7.30; on Ba/F3 ETV6-TRKB, under 6.30. The “ETV6-TRKB / EML4-ALK v1 I1171N/D1203N” value in experiment [1] is “B (bin B for high selectivity, ratio≥10-fold but<30)”.

As for `C[C@H]1Oc2cc(cnc2N)-c2c(c(C(=O)N3CCC(F)(F)C3)nn2CC2CC2)Cc2cn(C)nc2-c2ccc(F)cc21` [Example 12, {(R)-22-amino-3-(cyclopropylmethyl)-16-fluoro-10-methyl-19-methyl-20-oxa-3,4,10,11,23-pentaazapentacyclo[19.3.1.0^2,^6.0^8,^12.013,18]pentacosa-1(24),2(6),4,8,11,13,15,17,21(25),22-decaen-5-yl}(3,3-difluoro-1-pyrrolidinyl)methanone], the negative logarithm of the Ki (pKi) was over 7.30 at ALK I1171N/D1203N and at most 6.30 on TRKB-wt. Further, the pIC50 in experiment [1] is 6.30 to 7.30; at Ba/F3 ETV6-TRKB, under 6.30. For the same molecule, the “ETV6-TRKB / EML4-ALK v1 I1171N/D1203N” value in experiment [1] is “C (bin C for moderate selectivity, ratio≥1 but<10)”.

As for `C[C@H]1Oc2cc(cnc2N)-c2c(c(S(C)(=O)=O)nn2CC2CC2)Cc2cn(C)nc2-c2ccc(F)cc21` [Example 2, (R)-3-(cyclopropylmethyl)-16-fluoro-5-mesyl-10-methyl-19-methyl-20-oxa-3,4,10,11,23-pentaazapentacyclo[19.3.1.0^2,6.0^8,12.0^13,18]pentacosa-1(24),2(6),4,8,11,13,15,17,21(25),22-decaen-22-ylamine], the pKi is 6.30 to 7.30 on ALK I1171N/D1203N and at most 6.30 at TRKB-wt. Besides, the pIC50 in experiment [1] was 6.30 to 7.30; at Ba/F3 ETV6-TRKB, under 6.30. Besides, the “ETV6-TRKB / EML4-ALK v1 I1171N/D1203N” value in experiment [1] is given as “C (bin C for moderate selectivity, ratio≥1 but<10)”.

In the case of `Cc1cc2n(n1)-c1ccc(F)cc1[C@@H](C)Oc1cc(cnc1N)-c1c(C#N)nn(C)c1C2=O` [Example 18, (R)-22-amino-16-fluoro-5-methyl-10,19-dimethyl-7-oxo-20-oxa-4,5,11,12,23-pentaazapentacyclo[19.3.1.0^2,^6.0^8,^12.0^13,^18]pentacosa-1(24),2(6),3,8,10,13,15,17,21(25),22-decaene-3-carbonitrile], the figures for the negative-log Ki (pKi) at ALK I1171N/D1203N and on TRKB-wt were over 7.30 and 6.30 to 7.30, respectively. For the same molecule, the pIC50 in experiment [1] was 6.30 to 7.30; on Ba/F3 ETV6-TRKB, under 6.30. In experiment [1], the “ETV6-TRKB / EML4-ALK v1 I1171N/D1203N” value is “C (bin C for moderate selectivity, ratio≥1 but<10)”. Moreover, the “Selectivity” value in experiment [1] was “CC (bin CC for the selectivity with the ratio≥5 but<10)”.

On to `C[C@H]1Oc2cc(cnc2N)-c2c(CC3CC3)nc(C(=O)N(C)C)n2Cc2cn(C)nc2-c2ccc(F)cc21` [Example 41, N,N-dimethyl-(R)-22-amino-3-(cyclopropylmethyl)-16-fluoro-10-methyl-19-methyl-20-oxa-4,6,10,11,23-pentaazapentacyclo[19.3.1.0^2,6.0^8,12.0^13,18]pentacosa-1(24),2,4,8,11,13,15,17,21(25),22-decaene-5-carboxamide], for which the values for the negative logarithm of the Ki (pKi) at ALK I1171N/D1203N and at TRKB-wt were over 7.30 and at most 6.30, respectively. The pIC50 is 7.30 to 10.00 in experiment [1] and under 6.30 on Ba/F3 ETV6-TRKB. Besides, the “ETV6-TRKB / EML4-ALK v1 I1171N/D1203N” value in experiment [1] is on record as “A (bin A for very high selectivity, ratio≥30-fold)”.

Take `C[C@H]1Oc2cc(cnc2N)-c2c(c(C(=O)N(C)C3CC3)nn2CC2CC2)Cc2cn(C)nc2-c2ccc(F)cc21` [Example 40, N-cyclopropyl-N-methyl-(R)-22-amino-3-(cyclopropylmethyl)-16-fluoro-10-methyl-19-methyl-20-oxa-3,4,10,11,23-pontaazapentacyclo[19.3.1.0^2,^6.0^8,^12.0^13,^18]pentacosa-1(24),2(6),4,8,11,13,15,17,21(25),22-decaene-5-carboxamide]: the pKi at ALK I1171N/D1203N is over 7.30; on TRKB-wt, at most 6.30. The pIC50 in experiment [1] is 6.30 to 7.30; on Ba/F3 ETV6-TRKB, under 6.30. Moreover, the “ETV6-TRKB / EML4-ALK v1 I1171N/D1203N” value in experiment [1] is “A (bin A for very high selectivity, ratio≥30-fold)”.

Turning to `CCn1ncc2c1-c1cnc(N)c(c1)O[C@H](C)c1cc(F)ccc1-c1ncccc1C2=O` [Example 76, (R)-23-amino-3-ethyl-17-fluoro-20-methyl-21-oxa-3,4,12,24-tetraazapentacyclo[20.3.1.0^2,^6.0^8,^13.0^14,^19]hexacosa-1(25),2(6),4,8(13),9,11,14,16,18,22(26),23-undecaen-7-one], the negative-log Ki (pKi) at ALK I1171N/D1203N was over 7.30. For the same molecule, the pIC50 against Ba/F3 EML4-ALK v1 I1171N (Ba/F3 stable cells, 72 hours, CellTiter-Glo) was under 6.30. Also, at Ba/F3 EML4-ALK v1 I1171N (TRKB selectivity, ratio of Ba/F3 IC50 values), the “ETV6-TRKB / EML4-ALK v1 I1171N” value is given as “C (bin C for moderate selectivity, ratio≥1 but<10)”. For the same molecule, in experiment [1], the negative logarithm of the IC50 (pIC50) is 6.30 to 7.30; the “ETV6-TRKB / EML4-ALK v1 I1171N/D1203N” value was “C (bin C for moderate selectivity, ratio≥1 but<10)”; the “Selectivity” value is “DD (bin DD for the selectivity with the ratio≥1 but<5)”. Besides, the negative-log IC50 (pIC50) at Ba/F3 ETV6-TRKB is under 6.30.

Source of the values: patent publication US20250326769A1, “HETEROAROMATIC MACROCYCLIC ETHER CHEMOTHERAPEUTIC AGENTS” (Nuvalent, Inc., priority 2022, published 2025).
